Data taken from ChEMBL document CHEMBL6074668 (J Med Chem, 2024).
Calls of active or inactive are those of the source. The calls are words filed in the database; no cut-off is given here.

Assays:
[1] = molecular target: T1, Alpha-1A adrenergic receptor (Homo sapiens, UniProt P35348); assay: Binding affinity to alpha1A adrenergic receptor (unknown origin) by radioligand displacement assay
T1 sequence (P35348 whole entry): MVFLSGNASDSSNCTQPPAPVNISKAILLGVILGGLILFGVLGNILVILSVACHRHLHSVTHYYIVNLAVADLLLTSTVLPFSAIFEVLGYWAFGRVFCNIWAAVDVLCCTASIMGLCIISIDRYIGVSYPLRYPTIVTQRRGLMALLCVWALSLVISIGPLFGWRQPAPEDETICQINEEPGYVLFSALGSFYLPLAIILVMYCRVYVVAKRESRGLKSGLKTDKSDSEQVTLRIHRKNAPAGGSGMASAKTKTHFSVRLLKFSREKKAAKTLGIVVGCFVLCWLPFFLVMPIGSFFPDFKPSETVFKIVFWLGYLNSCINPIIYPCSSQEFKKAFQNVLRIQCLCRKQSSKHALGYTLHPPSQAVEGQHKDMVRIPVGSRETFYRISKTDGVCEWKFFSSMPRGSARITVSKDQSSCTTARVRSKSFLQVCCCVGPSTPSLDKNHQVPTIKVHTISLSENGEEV

[2] = molecular target: T2, Alpha-2C adrenergic receptor (Homo sapiens, UniProt P18825); assay: Binding affinity to alpha2C adrenergic receptor (unknown origin) by radioligand displacement assay
T2 sequence (P18825 whole entry): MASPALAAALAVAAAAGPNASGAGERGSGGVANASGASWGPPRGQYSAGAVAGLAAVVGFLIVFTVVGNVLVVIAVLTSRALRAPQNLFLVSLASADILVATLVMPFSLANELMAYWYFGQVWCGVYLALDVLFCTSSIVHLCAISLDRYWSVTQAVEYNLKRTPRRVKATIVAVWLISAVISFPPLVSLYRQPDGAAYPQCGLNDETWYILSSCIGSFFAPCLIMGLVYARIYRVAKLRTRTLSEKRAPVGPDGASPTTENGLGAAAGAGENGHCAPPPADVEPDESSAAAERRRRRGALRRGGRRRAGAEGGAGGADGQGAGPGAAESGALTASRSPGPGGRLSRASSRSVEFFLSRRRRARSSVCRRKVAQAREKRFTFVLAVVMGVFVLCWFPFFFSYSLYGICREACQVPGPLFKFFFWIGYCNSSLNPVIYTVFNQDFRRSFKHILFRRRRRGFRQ

[3] = molecular target: T3, Voltage-gated inwardly rectifying potassium channel KCNH2 (Homo sapiens, UniProt Q12809); assay: Binding affinity to hERG by radioligand displacement assay; assay type: toxicity
T3 sequence (Q12809 whole entry): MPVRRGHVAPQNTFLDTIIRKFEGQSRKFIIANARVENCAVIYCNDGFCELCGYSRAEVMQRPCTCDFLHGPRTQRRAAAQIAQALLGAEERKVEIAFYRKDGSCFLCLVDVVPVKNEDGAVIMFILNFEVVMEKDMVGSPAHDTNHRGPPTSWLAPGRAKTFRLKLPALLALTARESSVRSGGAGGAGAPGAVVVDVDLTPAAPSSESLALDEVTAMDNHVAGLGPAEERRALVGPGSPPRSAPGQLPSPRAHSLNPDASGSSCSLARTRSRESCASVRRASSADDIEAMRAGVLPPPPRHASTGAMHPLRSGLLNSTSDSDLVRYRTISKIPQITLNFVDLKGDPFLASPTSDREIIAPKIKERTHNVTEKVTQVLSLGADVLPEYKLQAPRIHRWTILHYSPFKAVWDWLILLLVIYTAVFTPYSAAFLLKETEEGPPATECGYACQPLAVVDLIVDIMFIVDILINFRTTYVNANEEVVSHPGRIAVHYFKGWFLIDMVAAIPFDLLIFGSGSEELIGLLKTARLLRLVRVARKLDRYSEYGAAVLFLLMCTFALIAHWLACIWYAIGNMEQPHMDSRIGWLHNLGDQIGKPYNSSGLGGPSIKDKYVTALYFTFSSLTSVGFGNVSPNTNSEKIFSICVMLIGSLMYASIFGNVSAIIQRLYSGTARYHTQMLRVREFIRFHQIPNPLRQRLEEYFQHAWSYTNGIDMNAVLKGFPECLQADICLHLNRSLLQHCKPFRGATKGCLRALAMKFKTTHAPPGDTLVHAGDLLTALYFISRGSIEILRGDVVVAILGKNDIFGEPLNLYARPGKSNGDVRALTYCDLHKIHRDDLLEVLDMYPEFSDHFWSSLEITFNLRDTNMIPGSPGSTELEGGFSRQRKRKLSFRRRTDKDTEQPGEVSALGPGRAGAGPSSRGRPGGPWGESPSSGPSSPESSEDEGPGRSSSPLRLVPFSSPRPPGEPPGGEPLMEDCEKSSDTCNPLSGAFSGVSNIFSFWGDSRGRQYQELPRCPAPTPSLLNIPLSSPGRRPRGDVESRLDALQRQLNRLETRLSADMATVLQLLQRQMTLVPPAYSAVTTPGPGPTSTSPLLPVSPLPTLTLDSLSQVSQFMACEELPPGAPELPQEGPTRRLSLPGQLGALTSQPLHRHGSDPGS

[4] = molecular target: T4, 5-hydroxytryptamine receptor 3A (Homo sapiens, UniProt P46098); assay: Binding affinity to 5HT3 receptor (unknown origin) by radioligand displacement assay
T4 sequence (P46098 whole entry): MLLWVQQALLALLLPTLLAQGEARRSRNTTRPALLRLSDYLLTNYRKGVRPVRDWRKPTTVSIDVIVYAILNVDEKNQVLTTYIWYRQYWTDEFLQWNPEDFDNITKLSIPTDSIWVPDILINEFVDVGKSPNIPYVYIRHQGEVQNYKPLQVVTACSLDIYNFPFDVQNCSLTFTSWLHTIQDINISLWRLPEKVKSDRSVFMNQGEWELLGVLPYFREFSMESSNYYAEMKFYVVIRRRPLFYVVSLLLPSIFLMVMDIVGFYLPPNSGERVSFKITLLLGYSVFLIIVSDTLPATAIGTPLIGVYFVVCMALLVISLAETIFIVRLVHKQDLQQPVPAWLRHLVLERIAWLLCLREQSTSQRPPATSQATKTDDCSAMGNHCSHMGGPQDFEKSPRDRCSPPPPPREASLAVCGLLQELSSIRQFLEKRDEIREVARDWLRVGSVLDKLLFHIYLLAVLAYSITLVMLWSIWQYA

[5] = molecular target: 5-hydroxytryptamine receptor 7 (Homo sapiens, UniProt P34969); assay: Binding affinity to 5HT7A receptor (unknown origin) by radioligand displacement assay
5-hydroxytryptamine receptor 7, sequence (P34969 whole entry): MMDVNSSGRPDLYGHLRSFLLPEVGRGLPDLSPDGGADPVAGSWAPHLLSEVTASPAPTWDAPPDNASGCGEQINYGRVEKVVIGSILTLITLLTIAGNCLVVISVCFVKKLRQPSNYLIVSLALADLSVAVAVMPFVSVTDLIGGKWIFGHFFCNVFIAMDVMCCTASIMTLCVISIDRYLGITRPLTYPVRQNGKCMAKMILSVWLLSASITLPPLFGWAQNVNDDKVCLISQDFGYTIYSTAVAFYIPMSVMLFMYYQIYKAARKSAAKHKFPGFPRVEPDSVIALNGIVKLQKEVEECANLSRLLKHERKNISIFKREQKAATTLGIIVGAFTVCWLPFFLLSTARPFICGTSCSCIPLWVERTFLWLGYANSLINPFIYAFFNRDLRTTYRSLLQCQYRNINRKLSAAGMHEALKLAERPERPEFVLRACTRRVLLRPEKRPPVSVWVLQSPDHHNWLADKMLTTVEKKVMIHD

[6] = Binding affinity to alpha7 […] receptor (unknown origin) by radioligand displacement assay; design: species or system Homo sapiens
[7] = molecular target: 5-hydroxytryptamine receptor 5A (Homo sapiens, UniProt P47898); assay: Binding affinity to 5HT5A receptor (unknown origin) by radioligand displacement assay
5-hydroxytryptamine receptor 5A, sequence (P47898 whole entry): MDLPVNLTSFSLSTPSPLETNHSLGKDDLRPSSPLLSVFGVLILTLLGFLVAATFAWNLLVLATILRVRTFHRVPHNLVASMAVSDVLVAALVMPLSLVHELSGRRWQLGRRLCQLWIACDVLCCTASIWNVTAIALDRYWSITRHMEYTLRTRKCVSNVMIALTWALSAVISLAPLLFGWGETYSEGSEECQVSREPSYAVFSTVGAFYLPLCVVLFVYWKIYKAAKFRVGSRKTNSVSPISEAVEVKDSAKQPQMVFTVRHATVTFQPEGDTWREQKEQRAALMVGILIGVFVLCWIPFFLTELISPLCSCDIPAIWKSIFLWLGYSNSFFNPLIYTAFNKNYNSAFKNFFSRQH

[8] = molecular target: T5, Alpha-2A adrenergic receptor (Homo sapiens, UniProt P08913); assay: Binding affinity to alpha2A adrenergic receptor (unknown origin) by radioligand displacement assay
T5 sequence (P08913 whole entry): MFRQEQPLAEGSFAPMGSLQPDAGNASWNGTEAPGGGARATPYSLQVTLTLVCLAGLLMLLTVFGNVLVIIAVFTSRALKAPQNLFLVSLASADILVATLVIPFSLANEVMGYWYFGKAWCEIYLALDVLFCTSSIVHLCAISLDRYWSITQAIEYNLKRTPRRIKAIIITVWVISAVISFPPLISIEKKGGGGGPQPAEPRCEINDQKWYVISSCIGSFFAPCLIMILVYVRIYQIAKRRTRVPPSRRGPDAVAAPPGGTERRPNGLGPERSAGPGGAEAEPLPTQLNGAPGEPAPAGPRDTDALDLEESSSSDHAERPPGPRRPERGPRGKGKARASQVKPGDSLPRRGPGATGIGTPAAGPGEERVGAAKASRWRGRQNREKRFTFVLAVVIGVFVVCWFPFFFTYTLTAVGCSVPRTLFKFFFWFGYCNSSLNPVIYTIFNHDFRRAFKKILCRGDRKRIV

[9] = molecular target: T6, Alpha-1B adrenergic receptor (Homo sapiens, UniProt P35368); assay: Binding affinity to alpha1B adrenergic receptor (unknown origin) by radioligand displacement assay
T6 sequence (P35368 whole entry): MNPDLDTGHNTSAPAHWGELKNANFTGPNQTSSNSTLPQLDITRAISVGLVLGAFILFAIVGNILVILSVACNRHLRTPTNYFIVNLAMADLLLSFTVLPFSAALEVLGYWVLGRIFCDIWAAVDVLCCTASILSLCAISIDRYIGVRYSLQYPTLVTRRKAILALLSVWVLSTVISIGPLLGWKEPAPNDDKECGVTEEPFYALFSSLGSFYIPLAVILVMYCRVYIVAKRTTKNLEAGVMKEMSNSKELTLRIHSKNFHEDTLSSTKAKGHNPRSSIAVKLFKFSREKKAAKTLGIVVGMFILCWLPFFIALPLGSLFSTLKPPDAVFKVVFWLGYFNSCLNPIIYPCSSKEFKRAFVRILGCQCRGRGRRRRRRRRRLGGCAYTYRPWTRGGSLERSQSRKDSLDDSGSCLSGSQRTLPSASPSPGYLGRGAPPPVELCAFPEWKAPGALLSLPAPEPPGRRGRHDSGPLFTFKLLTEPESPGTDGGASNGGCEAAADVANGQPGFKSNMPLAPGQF

[10] = molecular target: T7, Alpha-2B adrenergic receptor (Homo sapiens, UniProt P18089); assay: Binding affinity to alpha2B adrenergic receptor (unknown origin) by radioligand displacement assay
T7 sequence (P18089 whole entry): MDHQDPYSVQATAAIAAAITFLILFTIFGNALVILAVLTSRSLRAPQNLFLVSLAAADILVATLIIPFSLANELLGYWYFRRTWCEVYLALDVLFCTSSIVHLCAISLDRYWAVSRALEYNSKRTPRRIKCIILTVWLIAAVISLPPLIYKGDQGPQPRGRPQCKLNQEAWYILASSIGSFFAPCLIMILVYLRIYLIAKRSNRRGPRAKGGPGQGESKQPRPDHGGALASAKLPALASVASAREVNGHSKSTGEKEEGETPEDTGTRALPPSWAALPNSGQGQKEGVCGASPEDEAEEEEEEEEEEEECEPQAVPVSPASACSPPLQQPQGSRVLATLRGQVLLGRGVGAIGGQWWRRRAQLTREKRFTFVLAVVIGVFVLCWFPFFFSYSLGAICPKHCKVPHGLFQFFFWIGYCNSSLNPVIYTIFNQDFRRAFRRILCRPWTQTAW

[11] = Binding affinity to Sigma2 opioid receptor (unknown origin) by radioligand displacement assay; design: species or system Homo sapiens
[12] = molecular target: T8, Kappa-type opioid receptor (Homo sapiens, UniProt P41145); assay: Agonist activity at kappa opioid receptor (unknown origin) expressed in human U2OS cells assessed as beta arrestin2 recruitment at <10 uM incubated for 30 mins by PathHunter assay; assay type: functional, cell-based; conditions: filed as agonist
T8 sequence (P41145 whole entry): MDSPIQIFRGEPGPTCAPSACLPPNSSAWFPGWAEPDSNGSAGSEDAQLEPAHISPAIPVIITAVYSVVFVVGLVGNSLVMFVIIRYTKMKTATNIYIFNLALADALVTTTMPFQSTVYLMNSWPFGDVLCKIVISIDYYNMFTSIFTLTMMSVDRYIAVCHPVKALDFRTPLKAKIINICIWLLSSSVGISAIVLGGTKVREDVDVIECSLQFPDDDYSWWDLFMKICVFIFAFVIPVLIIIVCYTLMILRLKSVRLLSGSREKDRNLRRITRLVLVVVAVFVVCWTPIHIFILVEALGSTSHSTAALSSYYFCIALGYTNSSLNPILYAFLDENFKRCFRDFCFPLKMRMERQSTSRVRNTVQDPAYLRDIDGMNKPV

[13] = molecular target: Delta-type opioid receptor (Homo sapiens) (UniProt P41143); assay: Agonist activity at human delta opioid receptor expressed in CHO-K1 cells assessed as inhibition of forskolin-stimulated cAMP accumulation at <1 uM by HitHunter assay based luminescence analysis; assay type: functional, cell-based
Delta-type opioid receptor (Homo sapiens), sequence (P41143 whole entry): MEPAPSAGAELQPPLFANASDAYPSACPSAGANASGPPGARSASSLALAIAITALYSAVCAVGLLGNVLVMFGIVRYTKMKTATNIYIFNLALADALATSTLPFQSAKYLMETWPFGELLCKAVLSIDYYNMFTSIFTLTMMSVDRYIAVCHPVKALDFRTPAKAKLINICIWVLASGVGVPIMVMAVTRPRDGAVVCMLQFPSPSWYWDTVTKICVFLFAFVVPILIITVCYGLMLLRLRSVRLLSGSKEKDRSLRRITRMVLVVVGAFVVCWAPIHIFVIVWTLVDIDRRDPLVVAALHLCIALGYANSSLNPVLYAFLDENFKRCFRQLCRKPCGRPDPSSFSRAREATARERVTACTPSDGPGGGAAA

[14] = molecular target: T8, Kappa-type opioid receptor; assay: Agonist activity at human kappa opioid receptor expressed in CHO-K1 cells assessed as inhibition of forskolin-stimulated cAMP accumulation by HitHunter assay based luminescence analysis relative to control; assay type: functional, cell-based; conditions: filed as agonist
Mu-type opioid receptor [15] = molecular target: T9, Mu-type opioid receptor (Homo sapiens, UniProt P35372); assay: Agonist activity at human mu opioid receptor expressed in CHO-K1 cells assessed as inhibition of forskolin-stimulated cAMP accumulation by HitHunter assay based luminescence analysis relative to control; assay type: functional, cell-based
T9 sequence (P35372 whole entry): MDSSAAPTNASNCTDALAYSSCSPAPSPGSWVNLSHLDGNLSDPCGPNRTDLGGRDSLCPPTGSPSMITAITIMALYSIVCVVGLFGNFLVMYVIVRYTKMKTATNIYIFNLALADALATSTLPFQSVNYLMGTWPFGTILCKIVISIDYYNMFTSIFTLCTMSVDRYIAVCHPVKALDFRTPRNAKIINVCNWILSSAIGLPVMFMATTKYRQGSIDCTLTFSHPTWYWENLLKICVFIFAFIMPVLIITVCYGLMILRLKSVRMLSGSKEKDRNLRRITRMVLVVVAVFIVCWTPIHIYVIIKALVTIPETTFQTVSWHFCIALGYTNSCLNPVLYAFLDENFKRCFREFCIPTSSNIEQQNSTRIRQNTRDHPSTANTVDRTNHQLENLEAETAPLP

Homo sapiens = species on record: Homo sapiens; assay: Selectivity index, ratio of EC50 for agonist activity at human mu opioid receptor expressed in CHO-K1 cells to EC50 for agonist activity at human kappa opioid receptor expressed in CHO-K1 cells; assay type: cell-based
Mu-type opioid receptor [16] = molecular target: T9, Mu-type opioid receptor; assay: Agonist activity at human mu opioid receptor expressed in CHO-K1 cells assessed as inhibition of forskolin-stimulated cAMP accumulation by HitHunter assay based luminescence analysis; assay type: functional, cell-based
[17] = molecular target: T8, Kappa-type opioid receptor; assay: Agonist activity at human kappa opioid receptor expressed in CHO-K1 cells assessed as inhibition of forskolin-stimulated cAMP accumulation by HitHunter assay based luminescence analysis; assay type: functional, cell-based
[18] = molecular target: T8, Kappa-type opioid receptor; assay: Binding affinity to kappa opioid receptor (unknown origin) by radioligand displacement assay
[19] = molecular target: T3, Voltage-gated inwardly rectifying potassium channel KCNH2; assay: Binding affinity to hERG at 10 uM by radioligand displacement assay; assay type: toxicity
Mu-type opioid receptor [20] = molecular target: T9, Mu-type opioid receptor
Description: Binding affinity to mu opioid receptor (unknown origin) by radioligand displacement assay

[21] = molecular target: T8, Kappa-type opioid receptor; assay: Agonist activity at kappa opioid receptor (unknown origin) assessed as beta arrestin2 recruitment at 3 uM by PRESTO-Tango assay; assay type: functional; conditions: filed as agonist

Row | SMILES | Ki [2] [nM] | Ki [4] [nM] | Ki [5] [nM] | Ki [7] [nM] | Ki [10] [nM] | Activity [13] | Emax [14] [%] | EC50 [17] [nM] | also measured
1 | C/C=C1/CN2CC[C@]34C(=C(C(=O)OC)[C@H]1C[C@H]23)Nc1ccc(Br)cc14 | 2910 | 210 | 1520 | 721 | 1250 |  |  |  | Ki [1]: 1000 nM; Ki [3]: 1340 nM; Ki [6]: 7000 nM; Ki [8]: > 10000 nM; Ki [9]: 2880 nM; Ki [11]: 2620 nM
2 | C/C=C1/CN2CC[C@]34C(=C(C(=O)OC)[C@H]1C[C@H]23)Nc1ccc(-c2ccoc2)cc14 |  |  |  |  |  | inactive | 102 |  | Activity [12]: Active; Less Efficacious Than U50488; Emax (Mu-type opioid receptor [15]; filed as agonist): 99%
3 | C/C=C1/CN2CC[C@]34C(=C(C(=O)OC)[C@H]1C[C@H]23)Nc1ccc([N+](=O)[O-])cc14 |  |  |  |  |  | inactive | 96 | 160 | Ratio EC50 (Homo sapiens): 25; EC50 (Mu-type opioid receptor [16]): 4000 nM; Emax (Mu-type opioid receptor [15]): < 10%
4 | C/C=C1/CN2CC[C@]34C(=C(C(=O)OC)[C@H]1C[C@H]23)Nc1ccccc14 [AKUAMMICINE] | 4790 | 5490 | 1410 | 2930 | 1210 |  | 91 | 1200 | Ki [18]: 166 nM; Activity [19]: < 50%; Ki (Mu-type opioid receptor [20]): 3730 nM; Activity [21]: Active
